Format in all cases: biochemical
Settings in all cases: HeLa S3 lysate, sfGFP/mCherry ratio, 2 hrs at 30° C.

The subject of one test is CCND1. The test is described as follows: In vitro transcription-translation (IVTT) assay, CCND1 reporter. In outline:
(§1)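 Reporter: mCherry, P2A, then 3×FLAG-target peptide-sfGFP fusion, IRES-initiated; HeLa S3 lysate IVTT; cpd dilutions 30 μM−0.1 μM half-log in 100% DMSO (dilution-plate conc); DNA added last; 2 h, 30° C; PBS quench.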

In the next test the test system is KRAS G12D. Nature of the test: In vitro transcription-translation (IVTT) assay, KRAS G12D reporter. In outline:
as §1

Another test relates to ALK. The test is described as follows: In vitro transcription-translation (IVTT) assay, ALK reporter. In outline:
as §1

A further test has as its system MYC. The test is described as follows: In vitro transcription-translation (IVTT) assay, MYC reporter. In outline: as §1
The test system of the next test is MCL-1. Nature of the test: In vitro transcription-translation (IVTT) assay, MCL-1 reporter. In outline:
as §1

This note sets out measurements from patent US20250129021A1, “SMALL MOLECULE PROTEIN SYNTHESIS MODULATORS” (Interdict Bio, Inc., priority 2023, published 2025).

Turning to `C#CCNC(=O)O[C@@H]1[C@@H](O)CN[C@@H]1Cc1ccc(OC)cc1` [V0074, (2R,3S,4S)-4-hydroxy-2-[(4-methoxyphenyl)methyl]pyrrolidin-3-yl N-(prop-2-yn-1-yl)carbamate], the IC50 with CCND1, in the test with KRAS G12D, in the test on ALK and in the test with MYC was < 10 µM throughout.

As for `COc1ccc(C[C@H]2NC[C@H](O)[C@H]2OC(=O)NCCCCO)cc1` [V187586, (2R,3S,4S)-4-hydroxy-2-[(4-methoxyphenyl)methyl]pyrrolidin-3-yl N-(4-hydroxybutyl)carbamate], the concentration for half-maximal inhibition (IC50) in the test with CCND1, in the test on KRAS G12D, in the test on ALK and with MCL-1 was < 10 µM each time.

In the case of `COc1ccc(C[C@H]2NC[C@H](O)[C@H]2OC(=O)NCCCCCO)cc1` [V187587, (2R,3S,4S)-4-hydroxy-2-[(4-methoxyphenyl)methyl]pyrrolidin-3-yl N-(5-hydroxypentyl)carbamate], the 50% inhibitory concentration (IC50) in the test with CCND1, with KRAS G12D, in the test on ALK, with MCL-1 and with MYC was < 10 µM throughout.

Take `COc1ccc(C[C@H]2NC[C@H](O)[C@H]2OC(=O)NCCCN)cc1` [V187591]: the concentration for half-maximal inhibition (IC50) in the test with CCND1, in the test with KRAS G12D, in the test on ALK, in the test with MCL-1 and in the test with MYC was < 10 µM in each case.

On to `COc1ccc(C[C@H]2NC[C@H](O)[C@H]2OC(=O)NCCCCCn2ccnc2)cc1` [V187636, (2R,3S,4S)-4-hydroxy-2-[(4-methoxyphenyl)methyl]pyrrolidin-3-yl N-[5-(imidazol-1-yl)pentyl]carbamate; trifluoroacetic acid], for which the IC50 with KRAS G12D, with ALK, in the test with MCL-1 and in the test on MYC was < 10 µM in each case.

As to `COc1ccc(C[C@H]2NC[C@H](O)[C@H]2OC(=O)NCCN2C(=O)CNC2=O)cc1` [V187659, (2R,3S,4S)-4-hydroxy-2-[(4-methoxyphenyl)methyl]pyrrolidin-3-yl N-[2-(2,5-dioxoimidazolidin-1-yl)ethyl]carbamate; trifluoroacetic acid], the IC50 – broadly, the midpoint of a concentration-inhibition curve – in the test on KRAS G12D was > 30 µM; in the test with ALK it was < 10 µM; with MYC it was 20 to 30 µM.

For `COc1ccc(C[C@H]2NC[C@H](O)[C@H]2OC(=O)NC2CNC2)cc1` [V187679, (2R,3S,4S)-4-hydroxy-2-(4-methoxybenzyl)pyrrolidin-3-yl azetidin-3-ylcarbamate], the 50% inhibitory concentration (IC50) in the test on KRAS G12D was > 30 µM; in the test on ALK, 10 to 20 µM; in the test with MYC, > 30 µM.

For the molecule `COc1ccc(CC2NCC(O)C2OC(=O)NC2CC(N)C2)cc1` [V187681, (2R,3S,4S)-4-hydroxy-2-[(4-methoxyphenyl)methyl]pyrrolidin-3-yl N-[(1s,3s)-3-aminocyclobutyl]carbamate], the concentration for half-maximal inhibition (IC50) in the test on KRAS G12D, in the test on ALK and in the test with MYC was > 30 µM each time.

Regarding `COc1ccc(CC2NCC(O)C2OC(=O)NC2CC(N)C2)cc1` [V187682, (2R,3S,4S)-4-hydroxy-2-[(4-methoxyphenyl)methyl]pyrrolidin-3-yl N-[(1r,3r)-3-aminocyclobutyl]carbamate], the IC50 was > 30 µM with KRAS G12D, 10 to 20 µM with ALK and > 30 µM in the test on MYC.

On to `COc1ccc(C[C@H]2NC[C@H](O)[C@H]2OC(=O)NC[C@@H]2CCCN2)cc1` [V187684, (2R,3S,4S)-4-hydroxy-2-[(4-methoxyphenyl)methyl]pyrrolidin-3-yl N-[(2S)-pyrrolidin-2-ylmethyl]carbamate; trifluoroacetic acid], for which the IC50 in the test on KRAS G12D is > 30 µM; in the test with ALK, > 30 µM; in the test with MYC, 20 to 30 µM.

As for `COc1ccc(C[C@H]2NC[C@H](O)[C@H]2OC(=O)N[C@@H]2CCNC2)cc1` [V187688, (2R,3S,4S)-4-hydroxy-2-(4-methoxybenzyl)pyrrolidin-3-yl ((R)-pyrrolidin-3-yl)carbamate], the IC50 in the test with KRAS G12D, in the test with ALK and in the test with MYC was > 30 µM throughout.

Regarding `COc1ccc(C[C@H]2NC[C@H](O)[C@H]2OC(=O)NCCc2ccon2)cc1` [V187700, (2R,3S,4S)-4-hydroxy-2-[(4-methoxyphenyl)methyl]pyrrolidin-3-yl N-[2-(1,2-oxazol-3-yl)ethyl]carbamate; trifluoroacetic acid], the half-inhibitory concentration (IC50) in the test on CCND1, in the test on KRAS G12D, with ALK, in the test with MCL-1 and with MYC was < 10 µM in each case.

As for `COC1CCC(CC2NCC(O)C2OC(O)NCCOCC2CNNN2)CC1` (centres unmarked) [V187723, 4-[hydroxy({[2-(1,2,3-triazolidin-4-ylmethoxy)ethyl]amino})methoxy]-5-[(4-methoxycyclohexyl)methyl]pyrrolidin-3-ol; trifluoroacetic acid], the half-inhibitory concentration (IC50) in the test on CCND1 was 20 to 30 µM; with KRAS G12D it was > 30 µM; with ALK it was < 10 µM; in the test with MYC, 10 to 20 µM.

Turning to `COCc1nnc(NC(=O)O[C@@H]2[C@@H](O)CN[C@@H]2Cc2ccc(OC)cc2)s1` [V187730, (2R,3S,4S)-4-hydroxy-2-[(4-methoxyphenyl)methyl]pyrrolidin-3-yl N-[5-(methoxymethyl)-1,3,4-thiadiazol-2-yl]carbamate], the IC50 in the test with KRAS G12D, in the test on ALK and in the test with MYC was > 30 µM each time.

As for `COc1ccc(C[C@H]2NC[C@H](O)[C@H]2OC(=O)NNC(=O)Cc2ccccc2)cc1` [V187741, N′-({[(2R,3S,4S)-4-hydroxy-2-[(4-methoxyphenyl)methyl]pyrrolidin-3-yl]oxy}carbonyl)-2-phenylacetohydrazide; trifluoroacetic acid], the half-maximal inhibitory concentration (IC50) with KRAS G12D was 10 to 20 µM; with ALK, < 10 µM; in the test on MYC, < 10 µM.

On to `COc1ccc(C[C@H]2NC[C@H](O)[C@H]2OC(=O)NCc2cocn2)cc1` [V187767, (2R,3S,4S)-4-hydroxy-2-[(4-methoxyphenyl)methyl]pyrrolidin-3-yl N-(1,3-oxazol-4-ylmethyl)carbamate], for which the half-inhibitory concentration (IC50) with CCND1, in the test with KRAS G12D, in the test on ALK, with MCL-1 and in the test with MYC was < 10 µM in each case.

`COc1ccc(C[C@H]2NC[C@H](O)[C@H]2OC(=O)NCc2ncc[nH]2)cc1` [V187815, (2R,3S,4S)-4-hydroxy-2-[(4-methoxyphenyl)methyl]pyrrolidin-3-yl N-(1H-imidazol-2-ylmethyl)carbamate]: the IC50 with CCND1 was 10 to 20 µM; in the test with KRAS G12D, 20 to 30 µM; with ALK, < 10 µM; in the test with MYC it was < 10 µM.

In the case of `COc1ccc(C[C@H]2NC[C@H](O)[C@H]2OC(=O)NCCc2ncc[nH]2)cc1` [V187816, (2R,3S,4S)-4-hydroxy-2-[(4-methoxyphenyl)methyl]pyrrolidin-3-yl N-[2-(1H-imidazol-2-yl)ethyl]carbamate], the IC50 with CCND1 is > 30 µM; in the test on KRAS G12D it was > 30 µM; in the test with ALK it was < 10 µM; in the test on MYC, 20 to 30 µM.

As to `COc1ccc(C[C@H]2NC[C@H](O)[C@H]2OC(=O)NCCc2ncc(C)[nH]2)cc1` [V187818, (2R,3S,4S)-4-hydroxy-2-[(4-methoxyphenyl)methyl]pyrrolidin-3-yl N-[2-(4-methyl-3H-imidazol-2-yl)ethyl]carbamate], the IC50 is > 30 µM with CCND1, > 30 µM in the test on KRAS G12D, < 10 µM in the test on ALK and 20 to 30 µM with MYC.

Take `COc1ccc(C[C@H]2NC[C@H](O)[C@H]2OC(=O)NCCc2nc3ccccc3[nH]2)cc1` [V187820, (2R,3S,4S)-4-hydroxy-2-[(4-methoxyphenyl)methyl]pyrrolidin-3-yl N-[2-(1H-1,3-benzodiazol-2-yl)ethyl]carbamate]: the half-inhibitory concentration (IC50) in the test with CCND1 was 20 to 30 µM; with KRAS G12D, > 30 µM; with ALK, < 10 µM; in the test with MYC, 10 to 20 µM.

`COc1ccc(C[C@H]2NC[C@H](O)[C@H]2OC(=O)NCCc2nc3ccc(Cl)cc3[nH]2)cc1` [V187821, (2R,3S,4S)-4-hydroxy-2-[(4-methoxyphenyl)methyl]pyrrolidin-3-yl N-[2-(5-chloro-3H-1,3-benzodiazol-2-yl)ethyl]carbamate]: the IC50 with CCND1 is > 30 µM; with KRAS G12D, > 30 µM; in the test with ALK, < 10 µM; in the test with MYC it was 10 to 20 µM.
